Source: patent US20140005163A1 (NOVARTIS AG, priority 2010, published 2014)
Converted amounts (≈) assume the structure as drawn.

Assays:
[1] = Solubility at pH 6.8; format: physicochemical; conditions: pH 6.8, aqueous buffer, thermodynamic from solid; read-out: solubility
Outline: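 Solubility was measured at pH 6.8 following the cited Zhou et al. (2007) procedure.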

[2] = Cellular CaCo2 permeability assay from apical to basal (A-B); format: in vitro ADME; conditions: human, Caco-2, read-out: Pe A-B (permeability)
From the text: The permeability in 10^−6 cm/s of compounds of formula (I) have been confirmed for selected example using a cellular CaCo2 permeability assay from apical to basal (A-B): […]

[3] = target: T1, PI3K alpha (Homo sapiens, UniProt P42336); assay: PI3K alpha kinase assay (Kinase-Glo luminescence); format: biochemical
T1 construct: p85(iSH2) fusion partner (see partner chain) (N); His tag (C); made in house; host or cells: baculovirus; Tn5 (Trichoplusia ni) or TiniPro insect cells
Outline: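 Read-out: Kinase-Glo luminescence of ATP left after 60 min at room temperature. Conditions: 10 nM PI3Kα (EMV B1075), 1 μM ATP, 10 μg/mL PI substrate, Tris pH 7.5 buffer with MgCl2, NaCl, CHAPS and DTT. IC50s fitted with a four-parameter logistic model.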

[4] = target: T2, mTOR (Homo sapiens, UniProt P42345); assay: Biochemical assay for m-TOR by TR-FRET; conditions: 8 μM ATP, 400 nM GFP-4EBP1, 0.5 nM mTOR
T2 construct: purchased Invitrogen Corporation (Carlsbad/CA, USA) PV4753
Outline: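 Steps: ATP (8 μM final) plus GFP-4EBP1 (400 nM final) combined with mTOR (0.5 nM final), incubated at rt; buffer HEPES pH 7.5 with 10 mM MnCl2, NaCl, EGTA, DTT. Then stopped with EDTA/Tb3+-anti-p4EBP1 pT46 Ab (0.5 nM). Plates read after 15 min.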

[5] = target: T3, PI3K gamma (Homo sapiens, UniProt P48736); assay: PI3K gamma kinase assay (Kinase-Glo luminescence); format: biochemical
T3 construct: His tag (C); made in house; host or cells: baculovirus (pVL1393); Tn5 or TiniPro insect cells; construct from Roger Williams lab, MRC LMB
Outline: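 Luminescent ATP-depletion (Kinase-Glo) assay with 150 nM PI3Kγ, 1 μM ATP and 10 μg/mL phosphatidylinositol in 10 mM Tris-HCl pH 7.5, 3 mM MgCl2, 50 mM NaCl, 0.05% CHAPS, 1 mM DTT; 120 min at room temperature. Eight-point dilutions; IC50 by four-parameter logistic fit.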

T1 sequence (P42336 with tags, fused parts or gaps limits assumed): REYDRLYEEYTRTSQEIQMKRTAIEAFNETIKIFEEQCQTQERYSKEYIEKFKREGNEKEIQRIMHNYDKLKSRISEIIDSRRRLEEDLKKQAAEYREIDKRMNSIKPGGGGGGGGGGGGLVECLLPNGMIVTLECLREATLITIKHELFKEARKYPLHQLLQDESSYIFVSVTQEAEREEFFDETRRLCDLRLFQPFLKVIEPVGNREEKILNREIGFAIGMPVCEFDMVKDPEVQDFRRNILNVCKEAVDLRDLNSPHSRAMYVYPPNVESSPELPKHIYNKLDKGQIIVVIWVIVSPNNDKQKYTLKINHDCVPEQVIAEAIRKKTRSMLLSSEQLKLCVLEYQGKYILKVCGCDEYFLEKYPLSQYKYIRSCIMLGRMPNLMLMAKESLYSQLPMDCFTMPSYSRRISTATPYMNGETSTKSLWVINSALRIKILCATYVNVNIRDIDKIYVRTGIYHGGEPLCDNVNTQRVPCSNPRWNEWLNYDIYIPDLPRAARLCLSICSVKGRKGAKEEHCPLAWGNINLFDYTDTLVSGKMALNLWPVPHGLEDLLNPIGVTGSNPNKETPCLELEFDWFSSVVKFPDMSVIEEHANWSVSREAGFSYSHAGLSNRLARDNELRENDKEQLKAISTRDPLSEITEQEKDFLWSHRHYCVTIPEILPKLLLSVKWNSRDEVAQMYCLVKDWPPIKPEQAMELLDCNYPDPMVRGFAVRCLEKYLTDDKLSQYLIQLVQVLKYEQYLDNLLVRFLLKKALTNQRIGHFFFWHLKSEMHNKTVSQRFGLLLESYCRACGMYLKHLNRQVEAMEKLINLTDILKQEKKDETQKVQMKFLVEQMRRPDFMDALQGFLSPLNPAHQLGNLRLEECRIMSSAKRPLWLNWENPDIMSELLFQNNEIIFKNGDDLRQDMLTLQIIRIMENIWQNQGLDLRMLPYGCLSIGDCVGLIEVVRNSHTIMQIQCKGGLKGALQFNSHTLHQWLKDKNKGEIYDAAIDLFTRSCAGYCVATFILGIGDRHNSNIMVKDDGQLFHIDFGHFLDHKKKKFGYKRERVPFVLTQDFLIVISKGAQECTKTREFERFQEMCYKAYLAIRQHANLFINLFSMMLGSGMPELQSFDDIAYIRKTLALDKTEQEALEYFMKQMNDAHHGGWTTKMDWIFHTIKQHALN
T3 sequence (P48736 144-1102 limits assumed): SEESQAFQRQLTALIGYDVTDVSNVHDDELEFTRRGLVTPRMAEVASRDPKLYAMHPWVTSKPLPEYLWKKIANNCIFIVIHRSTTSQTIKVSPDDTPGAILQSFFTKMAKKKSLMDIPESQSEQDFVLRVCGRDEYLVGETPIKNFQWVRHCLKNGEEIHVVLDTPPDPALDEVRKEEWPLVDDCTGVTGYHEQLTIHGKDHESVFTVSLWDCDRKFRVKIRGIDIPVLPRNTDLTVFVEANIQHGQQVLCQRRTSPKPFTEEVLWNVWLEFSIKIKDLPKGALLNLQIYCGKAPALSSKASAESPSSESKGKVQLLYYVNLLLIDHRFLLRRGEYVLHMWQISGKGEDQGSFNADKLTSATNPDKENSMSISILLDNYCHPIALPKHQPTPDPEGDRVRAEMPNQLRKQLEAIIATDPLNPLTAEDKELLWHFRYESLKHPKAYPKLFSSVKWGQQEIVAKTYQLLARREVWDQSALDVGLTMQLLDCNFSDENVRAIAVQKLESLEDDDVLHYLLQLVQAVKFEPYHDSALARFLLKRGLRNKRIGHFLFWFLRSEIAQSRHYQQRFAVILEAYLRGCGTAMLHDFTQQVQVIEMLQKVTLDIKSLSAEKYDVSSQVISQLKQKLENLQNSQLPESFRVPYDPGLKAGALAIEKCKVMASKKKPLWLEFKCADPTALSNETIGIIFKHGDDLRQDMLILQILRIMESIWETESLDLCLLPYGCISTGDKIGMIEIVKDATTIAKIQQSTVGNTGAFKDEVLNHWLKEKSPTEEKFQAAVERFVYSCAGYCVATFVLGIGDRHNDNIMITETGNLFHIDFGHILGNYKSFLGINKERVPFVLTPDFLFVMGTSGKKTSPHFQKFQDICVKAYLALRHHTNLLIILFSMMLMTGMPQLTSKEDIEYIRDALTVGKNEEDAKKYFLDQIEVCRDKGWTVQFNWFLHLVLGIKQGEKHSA
T2 sequence (P42345 1360-2549 limits assumed): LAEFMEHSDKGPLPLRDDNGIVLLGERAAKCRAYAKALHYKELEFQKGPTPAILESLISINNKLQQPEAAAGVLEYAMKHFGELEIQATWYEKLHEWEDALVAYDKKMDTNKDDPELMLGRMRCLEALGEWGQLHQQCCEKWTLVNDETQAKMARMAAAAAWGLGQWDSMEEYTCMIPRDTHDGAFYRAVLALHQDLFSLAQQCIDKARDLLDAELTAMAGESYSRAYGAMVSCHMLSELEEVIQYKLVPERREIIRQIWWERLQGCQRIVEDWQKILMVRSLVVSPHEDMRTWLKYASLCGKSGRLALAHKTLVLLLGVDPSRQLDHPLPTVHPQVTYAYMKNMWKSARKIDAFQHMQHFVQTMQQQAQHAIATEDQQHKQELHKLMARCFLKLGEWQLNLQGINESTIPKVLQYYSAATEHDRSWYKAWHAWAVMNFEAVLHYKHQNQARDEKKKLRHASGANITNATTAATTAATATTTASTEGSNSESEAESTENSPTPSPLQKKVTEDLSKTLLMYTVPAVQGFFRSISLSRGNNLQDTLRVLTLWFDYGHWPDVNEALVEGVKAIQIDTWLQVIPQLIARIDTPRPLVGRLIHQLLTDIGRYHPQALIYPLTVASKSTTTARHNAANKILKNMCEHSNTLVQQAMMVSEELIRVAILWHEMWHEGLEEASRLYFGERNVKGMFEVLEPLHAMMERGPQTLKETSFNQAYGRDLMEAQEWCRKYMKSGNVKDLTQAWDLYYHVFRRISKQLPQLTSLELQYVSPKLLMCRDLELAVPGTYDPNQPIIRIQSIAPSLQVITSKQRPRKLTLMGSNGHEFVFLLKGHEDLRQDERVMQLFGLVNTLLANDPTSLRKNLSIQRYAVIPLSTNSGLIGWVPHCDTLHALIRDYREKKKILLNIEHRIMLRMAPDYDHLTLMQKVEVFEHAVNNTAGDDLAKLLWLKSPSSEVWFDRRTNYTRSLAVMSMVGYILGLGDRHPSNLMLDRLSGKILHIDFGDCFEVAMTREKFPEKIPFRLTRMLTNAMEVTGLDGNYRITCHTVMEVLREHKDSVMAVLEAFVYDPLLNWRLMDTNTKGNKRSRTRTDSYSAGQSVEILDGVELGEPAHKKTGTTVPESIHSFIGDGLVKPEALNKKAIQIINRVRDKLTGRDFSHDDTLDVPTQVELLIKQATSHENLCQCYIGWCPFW

Row | solubility [1] | Papp A→B [2] | IC50 [3] | IC50 [4] | IC50 [5] | SMILES
1 | 7 µg/mL (≈ 14.8 µM) | 7.7 ×10⁻⁶ cm/s | 13 nM | 11 nM | 246 nM | COc1ccc(-c2ccc3ncc4c(c3c2)n(-c2cn(CC(=O)N(C)C)nc2C)c(=O)n4C)cn1 [Example 102, 2-{4-[8-(6-Methoxy-pyridin-3-yl)-3-methyl-2-oxo-2,3-dihydro-imidazo[4,5-c]quinolin-1-yl]-3-methyl-pyrazol-1-yl}-N,N-dimethyl-acetamide]
2 | 4 µg/mL (≈ 9.33 µM) | 20.5 ×10⁻⁶ cm/s | 79 nM | 53 nM | 582 nM | CCn1cc(-n2c(=O)n(C)c3cnc4ccc(-c5ccc(COC)nc5)cc4c32)c(C)n1 [Example 104, 1-(1-Ethyl-3-methyl-1H-pyrazol-4-yl)-8-(6-methoxymethyl-pyridin-3-yl)-3-methyl-1,3-dihydro-imidazo[4,5-c]quinolin-2-one]
3 | 3 µg/mL (≈ 7.02 µM) |  | 26 nM | 5 nM | 164 nM | CNc1ccc(-c2ccc3ncc4c(c3c2)n(-c2cn(C(C)C)nc2C)c(=O)n4C)cn1 [Example 118.1, 1-(1-isopropyl-3-methyl-1H-pyrazol-4-yl)-3-methyl-8-(6-methylamino-pyridin-3-yl)-1,3-dihydro-imidazo[4,5-c]quinolin-2-one]
4 | 21 µg/mL (≈ 44.6 µM) |  | 16 nM | 9 nM | 138 nM | CNc1ccc(-c2ccc3ncc4c(c3c2)n(-c2cn(CC(=O)N(C)C)nc2C)c(=O)n4C)cn1 [Example 118.3, N,N-Dimethyl-2-{3-methyl-4-[3-methyl-8-(6-methylamino-pyridin-3-yl)-2-oxo-2,3-dihydro-imidazo[4,5-c]quinolin-1-yl]-pyrazol-1-yl}-acetamide]

Continued, molecule first:

Row | SMILES | solubility [1] | Papp A→B [2] | IC50 [3] | IC50 [4] | IC50 [5]
5 | CCNc1cc(-c2ccc3ncc4c(c3c2)n(-c2cn(C)nc2C)c(=O)n4C)cnc1C [Example 87.1, 1-(1,3-Dimethyl-1H-pyrazol-4-yl)-8-(5-ethylamino-6-methyl-pyridin-3-yl)-3-methyl-1,3-dihydro-imidazo[4,5-c]quinolin-2-one] | 410 µg/mL (≈ 959 µM) | 17 ×10⁻⁶ cm/s | 14 nM | 3 nM | 
6 | Cc1nn(C)cc1-n1c(=O)n(C)c2cnc3ccc(-c4ccc(N5CCN(C)CC5)nc4)cc3c21 [Example 96, 1-(1,3-Dimethyl-1H-pyrazol-4-yl)-3-methyl-8-[6-(4-methyl-piperazin-1-yl)-pyridin-3-yl]-1,3-dihydro-imidazo[4,5-c]quinolin-2-one] | > 469 µg/mL | 6 ×10⁻⁶ cm/s | 47 nM | 87 nM | 
7 | Cc1nn(C)cc1-n1c(=O)n(C)c2cnc3ccc(-c4cccc(N(C)S(C)(=O)=O)c4)cc3c21 [Example 117, N-{3-[1-(1,3-Dimethyl-1H-pyrazol-4-yl)-3-methyl-2-oxo-2,3-dihydro-1H-imidazo[4,5-c]quinolin-8-yl]-phenyl}-N-methyl-methanesulfonamide] | 3 µg/mL (≈ 6.3 µM) |  | 58 nM | 470 nM | 225 nM
